The text below walks through data of paper PMC8469489, “Effect of Lactic Acid Bacteria on the Pharmacokinetics and Metabolism of Ginsenosides in Mice” (Pharmaceutics, 2021).

SMILES strings stand for the structures.

One data set can be described thus: Microsomal stability. Type of data set: in vitro ADME, mouse. The conditions noted are these: 1 μM; for Metabolic stability in mouse liver microsomes: incubation for 1 h. How it is done: For microsomal stability, individual ginsenoside (1 μM each) was reconstituted in 100 mM potassium phosphate buffer (pH 7.4) containing 0.25 mg of mouse liver microsomes and preincubated for 5 min at 37 °C. This reaction was initiated by adding an NADPH-generating system (1.3 mM β-NADP, 3.3 mM glucose-6-phosphate, 3.3 mM MgCl2, and 1.0 unit/mL glucose-6-phosphate dehydrogenase; purchased form Corning Life Sciences) (to make final volume of 100 μL). The reaction mixture was incubated for 1 h at 37 °C in a shaking water bath and the reaction was quenched by addition of addition of an ice-cold IS solution (200 μL; 0.05 ng/mL berberine in methanol) to 30 μL of the reaction samples.
(§1) Subsequent protocols were identical to the method described above except for the use of ice-cold IS solution (200 μL; 0.05 ng/mL berberine in acetonitrile) to 30 μL of the reaction samples.
Plasma and microsomal stability was determined from the percent of remaining concentration of ginsenosides or marker compounds compared to their initial concentration.
(Microsomes from liver hold many membrane-bound enzymes, among them those of drug oxidation.)

The subject of data set [1] is lactic acid bacteria (LAB). Kind of data set: In vitro RGE fermentation with LAB. Particulars: for Alteration of ginsenoside by fermentation of RGE with LAB: 7 days incubation.
A short description of data set [2]: Recovery of ginsenosides from urine and feces for 48 h after RGE, amoxicillin vs control. Particulars: for Ginsenosides identified in urine: urine 48 h after single oral RGE 2 g/kg.
Procedure: Aliquots (200 μL) of an IS (0.05 ng/mL berberine in methanol) were added to 30 μL of plasma or urine samples. Aliquots (600 μL) of an IS methanol solution containing 0.05 ng/mL berberine were added to 100 μL of 10% feces homogenate samples. […] After centrifugation, 200 μL of the supernatant was transferred to a clean tube and dried under a nitrogen stream at 40 °C. The residue was reconstituted using 100 μL of 70% methanol supplemented with 0.1% formic acid, and a 10-μL aliquot was injected into the LC–MS/MS system.
Data set [3] in a line: Pharmacokinetics of ginsenosides after single oral RGE after amoxicillin with or without repeated LAB treatment. The conditions noted are these: single oral RGE 2 g/kg; for AUC: AUC 0 to 48 h.
Procedure: (§2) Mice received amoxicillin (n = 12, 20 mg/kg, dissolved in water at 2 mL/kg, twice daily) for 3 days via oral gavage. From the 4th day, mice from the LAB + amoxicillin treatment group received LAB (2 g/kg suspended in water at 2 mL/kg, once daily) for 7 days via oral gavage. Mice from the amoxicillin treatment group received water (2 mL/kg, once daily) for 7 days via oral gavage.
Blood sampling was performed using a sparse sampling method via the right or left retro-orbital vein under isoflurane anesthesia at 0, 2, 4, and 8 h after the RGE administration through the heparinized capillary tube. […] After centrifugation of the blood samples at 10,000× g for 1 min, 30 μL aliquots of plasma were stored at −80 °C until the analysis of the ginsenosides. Subsequent protocols were identical to the amoxicillin treated group.
Pharmacokinetic parameters were calculated using WinNonlin (version 5.1, Pharsight, Mountain View, CA, USA) by a non-compartmental analysis.
The nature of data set [4]: Pharmacokinetics of ginsenosides after single oral RGE with or without amoxicillin treatment. Type of data set: in vivo, mice. The conditions noted are these: single oral RGE 2 g/kg; for AUC: AUC 0 to 48 h. Here is the method:
Male ICR mice (7-weeks-year-old, 30–35 g) were purchased from Samtako Co. (Osan, Kyunggi-do, Korea). Animals were acclimatized for 1 week in an animal facility at Kyungpook National University. Food and water were available ad libitum.
Before blood sampling, mice were anesthetized using isoflurane (isoflurane vaporizer to 2% with oxygen flow at 0.8 L/min) for 5 min.

The subject of data set [5] is lactic acid bacteria (LAB). Kind of data set: Incubation of single ginsenoside with LAB (formation rate of metabolite ginsenoside). Particulars: 7 days, 37 °C, MRS broth. It is filed as in vitro ADME. Here is the method:
To compare the involvement of LAB on individual ginsenoside, an aliquot (10 μL) of each ginsenoside stock solution (10 mM in methanol) was mixed with autoclaved MRS broth (550 mg/10 mL in distilled water) and added 2 g of LAB (contained 1 billion CFU). Then, the mixture was incubated for 7 days in a shaking incubator at 37 °C and 300 rpm. For the analysis of ginsenosides, 0.2 mL aliquot of incubation mixture was collected every 24 h for 7 days. The incubation medium was diluted 100-fold with distilled water and stored at −80 °C. For the ginsenoside analysis, 200 μL of an IS solution (0.05 ng/mL berberine in methanol) was added to 30 μL of 100-fold diluted samples.

Data set [6] is described as follows: Recovery of ginsenosides from urine and feces for 48 h after RGE, amoxicillin with or without LAB. Particulars: for Fecal recovery, change by LAB treatment: feces 48 h after single oral RGE 2 g/kg, Amoxicillin + LAB vs amoxicillin.
Procedure: as §2
Details of data set [7]: method as in PMID 32023909. The conditions noted are these: cited from earlier work.
Data set [8] in a line: Plasma protein binding by rapid equilibrium dialysis. It is filed as in vitro ADME. The conditions noted are these: 1 μM, 4 h at 37 °C, mouse plasma. Here is the method: Briefly, 100 μL of mouse plasma containing 1 μM of each ginsenoside was added to the semipermeable membrane’s inner sample chamber (molecular weight cut-off 8000 Da), and 300 μL of PBS was added to the outer buffer chamber. The samples were then incubated for 4 h at 37 °C on a shaking incubator at 300 rpm, followed by collecting 30-μL aliquots from both the sample and buffer chambers.
as §1
Plasma protein binding was calculated using the following equation [31, 60]: Plasma protein binding=(1−Drug concentration in buffer chamber/Drug concentration in plasma sample chamber)×100(%).
(Equilibrium dialysis compares concentrations on both sides of a semipermeable membrane.)

[9] abbreviates: Amoxicillin 3 days then water 7 days.
Setting [10] is: Amoxicillin + LAB (LAB 2 g/kg once daily 7 days).
Setting [11] is: Amoxicillin 3 days pretreatment.

For the compound `CN(C)C(=N)N=C(N)N` [metformin, reference compound], the “percent of remaining after 1 h incubation in the mouse liver microsomes” value in “Microsomal stability” (NADPH-generating system, 37 °C) came to 69.35 ± 3.00%.
Turning to `CC(C)=CCC[C@](C)(O[C@@H]1O[C@H](CO[C@@H]2OC[C@H](O)[C@H](O)[C@H]2O)[C@@H](O)[C@H](O)[C@H]1O)[C@H]1CC[C@]2(C)[C@@H]1[C@H](O)C[C@@H]1[C@@]3(C)CC[C@H](O[C@@H]4O[C@H](CO)[C@@H](O)[C@H](O)[C@H]4O[C@@H]4O[C@H](CO)[C@@H](O)[C@H](O)[C@H]4O)C(C)(C)[C@@H]3CC[C@]12C` [GRb2], the “Alteration of ginsenoside by fermentation of RGE with LAB” value (shortened to “Alteration of ginsenoside”) in data set [1] is reported as “most significant decrease”. Besides, the “Fecal recovery, change by the amoxicillin treatment” value in data set [2] (feces 48 h after single oral RGE 2 g/kg, vs control) is given as “increased”. Further, in data set [2], the “Ginsenosides identified in urine” value is “identified in urine”. Also, the peak concentration (Cmax) (as a rule, the highest concentration seen after dosing) in [3] (setting [9]) was found to be 10.9 ± 5.2 ng/mL; in data set [3] (Amoxicillin + LAB) it was 15.1 ± 3.4 ng/mL; in data set [4] (setting [11]), 10.3 ± 4.6 ng/mL; in [4] (Control, plasma), 12.5 ± 2.1 ng/mL. Further, the Half-Life in data set [3] (setting [9]) stood at 19.2 ± 2.3 h; in data set [3] (Amoxicillin + LAB) it was 21.6 ± 1.7 h; in data set [4] (setting [11]), 25.1 ± 2.7 h; in data set [4] (Control, plasma), 24.6 ± 6.7 h. For the same compound, the MRT (in general, a mean duration of stay, worked out from the concentration-time curve) was 20.2 ± 1.7 h in data set [3] (setting [9]); 18.1 ± 0.9 h in [3] (Amoxicillin + LAB); 21.4 ± 1.6 h in data set [4] (setting [11]); 19.4 ± 1.6 h in data set [4] (Control, plasma). Moreover, the Tmax (in general, the time from dosing to the highest level) in [3] (setting [9]) came to 4.0 ± 0.0 h; in data set [3] (Amoxicillin + LAB), 8.0 ± 0.0 h; in data set [4] (setting [11]), 13.3 ± 9.2 h; in data set [4] (Control, plasma) it was 8.0 ± 0.0 h. The AUC (usually concentration integrated over time) in data set [3] (setting [9]) amounted to 385.9 ± 243.6 ng·h/mL; in data set [3] (setting [10]), 419.2 ± 108.6 ng·h/mL; in [4] (setting [11]), 391.5 ± 192 ng·h/mL; in data set [4] (Control, plasma, n = 3), 361.4 ± 74.3 ng·h/mL. The “Detection in mouse plasma following repeated LAB administration in addition to amoxicillin” value (from here on “Detection”) in [3] is “detected”. In addition, the “Plasma exposure / pharmacokinetic parameters, LAB treatment compared with amoxicillin group” value in data set [3] was “not different”. In addition, the “Plasma concentrations, amoxicillin treatment compared to the control group” value in [4] is given as “not significantly affected”. In addition, the “Metabolite formation on incubation of single ginsenoside with LAB” value (from here on “Metabolite formation on incubation”) in [5] was “produced GRg3 with the highest formation rate”. Besides, the “Fecal recovery, change by LAB treatment” value in data set [6] is “significantly decreased”. Further, in data set [7], the “Ratio of liver AUC to plasma AUC” value is listed as < 0.2.
For the compound `CC(C)=CCC[C@](C)(O[C@@H]1O[C@H](CO)[C@@H](O)[C@H](O)[C@H]1O)[C@H]1CC[C@]2(C)[C@@H]1[C@H](O)C[C@@H]1[C@@]3(C)CC[C@H](O)C(C)(C)[C@@H]3[C@@H](O)C[C@]12C` [GF1], in data set [1], the “Alteration of ginsenoside” value was “most significant decrease”. Further, in data set [8], the Plasma protein binding result is on record as “over 99%”. In [6], the “Fecal recovery, change by LAB treatment” value is reported as “remained similar”.
For `CC(C)=CCC[C@](C)(O)[C@H]1CC[C@]2(C)[C@@H]1[C@H](O)C[C@@H]1[C@@]3(C)CC[C@H](O)C(C)(C)[C@@H]3[C@@H](O[C@@H]3O[C@H](CO)[C@@H](O)[C@H](O)[C@H]3O)C[C@]12C` [GRh1, ginsenoside Rh1], the “Increase of ginsenoside by fermentation of RGE with LAB” value in data set [1] (7 days, relative to the first day) is recorded as “about 30%”. The “Metabolic stability in mouse liver microsomes” value in the data set “Microsomal stability” is “unstable”. Also, the “Detection” value in [3] was “not found”. Further, in [6], the “Fecal recovery, change by LAB treatment” value is recorded as “remained similar”.
With `CC(C)=CCC[C@](C)(O)[C@H]1CC[C@]2(C)[C@@H]1[C@H](O)C[C@@H]1[C@@]3(C)CC[C@H](O[C@@H]4O[C@H](CO)[C@@H](O)[C@H](O)[C@H]4O)C(C)(C)[C@@H]3CC[C@]12C` [GRh2], the “Alteration of ginsenoside” value in [1] is listed as “remained unchanged”. The “Metabolic stability in mouse liver microsomes” value in “Microsomal stability” is “unstable”. Moreover, the “Detection” value in data set [3] is “not found”. In addition, the “Metabolite formation on incubation” value in data set [5] is given as “the highest among the ginsenoside formation rate”. The “Fecal recovery, change by LAB treatment” value in data set [6] is reported as “remained similar”.
For `CC(C)=CCC[C@](C)(O[C@@H]1O[C@H](CO)[C@@H](O)[C@H](O)[C@H]1O)[C@H]1CC[C@]2(C)[C@@H]1[C@H](O)C[C@@H]1[C@@]3(C)CC[C@H](O[C@@H]4O[C@H](CO)[C@@H](O)[C@H](O)[C@H]4O[C@@H]4O[C@H](CO)[C@@H](O)[C@H](O)[C@H]4O)C(C)(C)[C@@H]3CC[C@]12C` [GRd], in [1], the “Alteration of ginsenoside” value is reported as “gradual decrease”. Also, the “Ginsenosides identified in urine” value in data set [2] was “identified in urine”. For the same compound, the highest concentration (Cmax) in data set [3] (setting [9]) is reported as 6.5 ± 5.1 ng/mL; in data set [3] (Amoxicillin + LAB), 18.4 ± 6.9 ng/mL; in data set [4] (setting [11]) it was 3.2 ± 1.6 ng/mL; in data set [4] (Control, plasma), 8.6 ± 1.8 ng/mL. Moreover, the Half-Life in [3] (setting [9]) was 29.2 ± 2.7 h; in [3] (Amoxicillin + LAB), 25.5 ± 3.8 h; in data set [4] (setting [11]), 29.1 ± 8.6 h; in [4] (Control, plasma) it was 24.2 ± 3.1 h. The MRT in [3] (setting [9]) worked out at 24.1 ± 3.9 h; in [3] (Amoxicillin + LAB), 20.6 ± 3.7 h; in data set [4] (setting [11]), 24.0 ± 2.1 h; in data set [4] (Control, plasma), 21.3 ± 3.0 h. Further, the time of peak concentration (Tmax) in [3] (setting [9]) came to 5.3 ± 2.3 h; in [3] (Amoxicillin + LAB) it was 16.0 ± 9.2 h; in data set [4] (setting [11]), 24.7 ± 23.0 h; in [4] (Control, plasma) it was 13.3 ± 9.2 h. The AUC in [3] (setting [9]) turned out to be 213.1 ± 151.3 ng·h/mL; in data set [3] (setting [10]), 618.1 ± 385.6 ng·h/mL; in [4] (setting [11]), 132.4 ± 77 ng·h/mL; in data set [4] (Control, plasma, n = 3), 278.8 ± 117 ng·h/mL. For the same compound, the “Detection” value in data set [3] is listed as “detected”. Besides, the “Plasma exposure / pharmacokinetic parameters, LAB treatment compared with amoxicillin group” value is “increased” in data set [3] and “significantly increased” in data set [3] (listed as Rd). Also, in data set [4], the “Plasma concentrations, amoxicillin treatment compared to the control group” value is reported as “decreased”. Besides, the “Metabolite formation on incubation” value in data set [5] was “produced GRg3 with the highest formation rate”. Besides, the “Fecal recovery, change by LAB treatment” value in data set [6] is given as “significantly decreased”. Also, in [6] (urine 48 h after single oral RGE 2 g/kg), the “Urinary excretion, Amoxicillin + LAB compared with amoxicillin group” value is listed as “increased”. In [7], the “Ratio of liver AUC to plasma AUC” value is < 0.2.
